Measured values: patent US10722515B2, “Dual CLK/CDK1 inhibitors for cancer treatment” (SRI INTERNATIONAL, priority 2016, dated 2020)
Read-outs that look alike come from different tables or passages of the source.

Key:
CLK2(h) = molecular target: T1, CLK2(h) (Homo sapiens, UniProt P49760); assay: radiometric protein kinase assay, CLK2; type: biochemical; conditions: enzyme inhibition, ATP 10 μM
T1 construct: purchased Eurofins, Dundee, Scotland
Description: (§1) Enzymatic biochemical activities were evaluated in radiometric protein kinase assays (Eurofins, Dundee, Scotland). Kinases are incubated with buffer, substrate and [γ-^33P]-ATP (specific activity approx. 500 cpm/pmol, concentration as required). The reaction is initiated by the addition of the MgATP mix. After incubation for 40 minutes at room temperature, the reaction is stopped by the addition of 3% phosphoric acid solution. 10 μL of the reaction is then spotted onto a P30 filtermat and washed three times for 5 minutes in 75 mM phosphoric acid and once in methanol prior to drying and scintillation counting.
(§2) All compounds are prepared to 50× final assay concentration in 100% DMSO. Positive control wells contain all components of the reaction with 2% DMSO. Blank wells contain all components of the reaction, with a reference inhibitor replacing the compound of interest. Each kinase is assigned a standard assay concentration of ATP within 20 μM of its apparent KM. Compounds were screened at 1 μM in duplicate or tested at 10 concentrations at half log dilution starting from 10 μM in singlicate. Dose response curves were fitted with four parameter logistic curve to obtain IC50 values. The average coefficient of variation (CV) of the conducted assay is 4.4%.

CLK3(h) = molecular target: T2, CLK3(h) (Homo sapiens, UniProt P49761); assay: radiometric protein kinase assay, CLK3; type: biochemical
T2 construct: purchased Eurofins, Dundee, Scotland
Description: as §1, §2

CDK4/cyclinD3(h) = molecular target: T3, CDK4/cyclinD3(h) (Homo sapiens, UniProt P11802); assay: radiometric protein kinase assay, CDK4; type: biochemical; conditions: enzyme inhibition, ATP 20 μM
T3 construct: purchased Eurofins, Dundee, Scotland
Description: as §1, §2

CDK1/cyclinB(h) = molecular target: T4, CDK1/cyclinB(h) (Homo sapiens, UniProt P06493); assay: radiometric protein kinase assay, CDK1; type: biochemical; conditions: enzyme inhibition, ATP 45 μM
T4 construct: purchased Eurofins, Dundee, Scotland
Description: as §1, §2

CDK6/cyclinD3(h) = molecular target: T5, CDK6/cyclinD3(h) (Homo sapiens, UniProt Q00534); assay: radiometric protein kinase assay, CDK6; type: biochemical; conditions: enzyme inhibition, ATP 20 μM
T5 construct: purchased Eurofins, Dundee, Scotland
Description: as §1, §2

CLK1(h) = molecular target: T6, CLK1(h) (Homo sapiens, UniProt P49759); assay: radiometric protein kinase assay, CLK1; type: biochemical; conditions: enzyme inhibition, radiometric, ATP 10 μM; read-out: IC50 (nM) CLK1
T6 construct: purchased Eurofins, Dundee, Scotland
Description: as §1, §2

CLK4(h) = molecular target: T7, CLK4(h) (Homo sapiens, UniProt Q9HAZ1); assay: radiometric protein kinase assay, CLK4; type: biochemical; conditions: enzyme inhibition, ATP 10 μM
T7 construct: purchased Eurofins, Dundee, Scotland
Description: as §1, §2

[1] = tested on: SK-MEL-2/Luc-MDM2 cells (MDM2-Luc exon-skipping reporter); assay: cell-based MDM2-Luc exon-skipping reporter assay; conditions: for activity in the MDM2-Luc assay: at 10 μM; for MDM2/Luc: luciferase activation vs DMSO control, average of three experiments; for MDM2-Luc activity: result in words, no concentration stated
[2] = enzyme inhibition, radiometric, ATP 90 μM, read-out: IC50 (nM) CLK3

T7 sequence (Q9HAZ1 whole entry): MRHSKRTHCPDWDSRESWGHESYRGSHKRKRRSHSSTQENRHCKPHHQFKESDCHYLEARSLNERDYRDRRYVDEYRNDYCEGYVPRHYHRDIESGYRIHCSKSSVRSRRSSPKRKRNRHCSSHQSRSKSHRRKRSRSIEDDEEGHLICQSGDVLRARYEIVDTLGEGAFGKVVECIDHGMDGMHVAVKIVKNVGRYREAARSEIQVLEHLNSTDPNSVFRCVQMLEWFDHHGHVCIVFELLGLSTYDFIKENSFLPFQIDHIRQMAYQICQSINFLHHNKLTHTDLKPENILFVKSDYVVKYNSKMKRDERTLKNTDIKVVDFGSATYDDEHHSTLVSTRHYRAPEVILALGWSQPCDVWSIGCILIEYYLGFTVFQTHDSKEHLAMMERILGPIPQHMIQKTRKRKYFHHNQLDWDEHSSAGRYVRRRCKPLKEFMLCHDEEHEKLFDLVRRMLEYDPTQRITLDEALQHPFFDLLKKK
T3 sequence (P11802 whole entry): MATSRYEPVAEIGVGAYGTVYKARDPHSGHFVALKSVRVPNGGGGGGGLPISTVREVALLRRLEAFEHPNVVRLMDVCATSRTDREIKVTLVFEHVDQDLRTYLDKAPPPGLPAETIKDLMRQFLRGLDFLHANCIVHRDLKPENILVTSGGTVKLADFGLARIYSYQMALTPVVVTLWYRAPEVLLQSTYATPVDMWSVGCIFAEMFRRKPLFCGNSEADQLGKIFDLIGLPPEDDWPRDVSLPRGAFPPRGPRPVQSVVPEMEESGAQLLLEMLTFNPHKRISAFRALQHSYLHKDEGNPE
T3 sequence (P30281 whole entry partner): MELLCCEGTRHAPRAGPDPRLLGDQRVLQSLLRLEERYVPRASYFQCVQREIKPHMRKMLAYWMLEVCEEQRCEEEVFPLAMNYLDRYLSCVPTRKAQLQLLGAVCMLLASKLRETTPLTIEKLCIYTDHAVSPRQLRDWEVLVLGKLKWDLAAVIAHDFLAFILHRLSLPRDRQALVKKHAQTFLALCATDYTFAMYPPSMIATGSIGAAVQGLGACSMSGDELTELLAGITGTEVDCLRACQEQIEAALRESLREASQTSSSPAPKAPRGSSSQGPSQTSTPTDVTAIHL
T1 sequence (P49760 whole entry): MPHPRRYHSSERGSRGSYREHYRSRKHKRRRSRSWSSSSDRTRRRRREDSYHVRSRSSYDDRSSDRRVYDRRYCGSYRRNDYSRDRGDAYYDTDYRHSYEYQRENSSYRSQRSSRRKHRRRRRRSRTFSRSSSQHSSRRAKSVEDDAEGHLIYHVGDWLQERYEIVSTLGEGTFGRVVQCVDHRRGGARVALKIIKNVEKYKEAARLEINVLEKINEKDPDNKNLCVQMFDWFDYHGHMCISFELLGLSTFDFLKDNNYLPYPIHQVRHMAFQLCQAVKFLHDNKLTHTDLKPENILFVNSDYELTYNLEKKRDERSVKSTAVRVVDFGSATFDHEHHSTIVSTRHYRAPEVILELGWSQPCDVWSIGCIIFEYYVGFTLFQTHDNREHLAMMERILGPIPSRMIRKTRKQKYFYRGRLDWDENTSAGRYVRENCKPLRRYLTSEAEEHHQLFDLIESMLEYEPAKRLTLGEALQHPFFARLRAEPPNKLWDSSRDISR
T4 sequence (P06493 whole entry): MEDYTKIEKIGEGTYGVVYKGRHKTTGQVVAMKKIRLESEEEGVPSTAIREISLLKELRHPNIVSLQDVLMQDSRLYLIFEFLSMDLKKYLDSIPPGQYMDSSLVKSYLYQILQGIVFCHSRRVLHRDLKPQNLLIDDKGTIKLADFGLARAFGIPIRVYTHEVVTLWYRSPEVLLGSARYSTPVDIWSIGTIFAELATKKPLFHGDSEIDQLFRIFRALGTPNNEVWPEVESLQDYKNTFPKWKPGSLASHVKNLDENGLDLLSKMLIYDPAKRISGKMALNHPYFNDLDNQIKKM
T4 sequence (P14635 whole entry partner): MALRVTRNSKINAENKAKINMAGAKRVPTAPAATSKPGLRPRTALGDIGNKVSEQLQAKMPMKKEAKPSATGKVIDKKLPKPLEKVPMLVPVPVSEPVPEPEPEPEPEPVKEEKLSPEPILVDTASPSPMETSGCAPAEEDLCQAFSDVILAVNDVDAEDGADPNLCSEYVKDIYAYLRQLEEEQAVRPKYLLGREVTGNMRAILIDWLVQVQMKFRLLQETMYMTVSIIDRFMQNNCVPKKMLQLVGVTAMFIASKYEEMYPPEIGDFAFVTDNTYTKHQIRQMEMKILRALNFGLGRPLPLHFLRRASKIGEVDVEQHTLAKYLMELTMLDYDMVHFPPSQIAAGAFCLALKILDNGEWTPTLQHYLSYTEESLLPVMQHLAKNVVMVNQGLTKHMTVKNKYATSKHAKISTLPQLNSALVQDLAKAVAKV
T6 sequence (P49759 whole entry): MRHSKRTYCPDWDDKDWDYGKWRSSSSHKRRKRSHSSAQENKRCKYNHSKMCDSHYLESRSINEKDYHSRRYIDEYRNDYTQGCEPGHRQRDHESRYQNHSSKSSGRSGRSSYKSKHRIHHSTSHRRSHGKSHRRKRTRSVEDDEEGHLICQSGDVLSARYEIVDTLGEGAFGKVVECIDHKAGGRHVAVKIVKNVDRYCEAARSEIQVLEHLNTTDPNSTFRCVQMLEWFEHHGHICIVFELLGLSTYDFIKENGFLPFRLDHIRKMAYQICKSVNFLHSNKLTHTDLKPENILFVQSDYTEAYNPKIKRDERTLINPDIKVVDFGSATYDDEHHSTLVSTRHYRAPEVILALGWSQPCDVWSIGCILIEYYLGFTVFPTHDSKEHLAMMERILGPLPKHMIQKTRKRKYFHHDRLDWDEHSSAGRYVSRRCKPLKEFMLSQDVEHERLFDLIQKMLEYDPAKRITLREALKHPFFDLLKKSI
T2 sequence (P49761 whole entry): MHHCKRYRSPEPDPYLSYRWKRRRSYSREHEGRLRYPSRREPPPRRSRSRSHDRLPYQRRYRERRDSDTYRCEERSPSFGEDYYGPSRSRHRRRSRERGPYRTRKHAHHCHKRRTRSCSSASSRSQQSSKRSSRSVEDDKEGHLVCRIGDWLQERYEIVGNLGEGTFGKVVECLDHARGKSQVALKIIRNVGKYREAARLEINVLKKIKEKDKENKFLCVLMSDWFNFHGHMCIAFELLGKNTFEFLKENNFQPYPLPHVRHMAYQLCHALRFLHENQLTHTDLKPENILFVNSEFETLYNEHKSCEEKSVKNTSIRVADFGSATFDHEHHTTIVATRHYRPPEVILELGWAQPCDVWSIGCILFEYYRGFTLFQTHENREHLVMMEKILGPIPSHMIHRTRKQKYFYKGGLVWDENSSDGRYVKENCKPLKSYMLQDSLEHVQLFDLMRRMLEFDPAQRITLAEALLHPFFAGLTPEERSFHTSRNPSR
T5 sequence (Q00534 whole entry): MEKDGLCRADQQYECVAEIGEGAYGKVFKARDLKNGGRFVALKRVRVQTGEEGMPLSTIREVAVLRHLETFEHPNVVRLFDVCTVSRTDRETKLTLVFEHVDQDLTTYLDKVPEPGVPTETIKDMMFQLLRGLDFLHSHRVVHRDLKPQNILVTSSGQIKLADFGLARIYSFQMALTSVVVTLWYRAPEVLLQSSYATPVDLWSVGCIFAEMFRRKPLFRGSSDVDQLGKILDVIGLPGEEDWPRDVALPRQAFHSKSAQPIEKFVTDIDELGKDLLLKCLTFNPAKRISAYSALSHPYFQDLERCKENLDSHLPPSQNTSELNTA
T5 sequence (P30281 whole entry partner): as the sequence (P30281 whole entry partner) above

Structure (SMILES) | IC50 (CLK2(h)) [nM] | IC50 (CLK3(h); [2]) [nM] | IC50 (CDK4/cyclinD3(h)) [nM] | IC50 (CDK1/cyclinB(h)) [nM] | IC50 (CDK6/cyclinD3(h)) [nM] | IC50 (CLK1(h)) [nM] | IC50 (CLK4(h)) [nM] | activity in the MDM2-Luc assay [1] | luciferase response (Luc fold) in the MDM2-Luc reporter assay ([1]; compared with less potent CLK inhibitors of the series) | MDM2/Luc [1] | MDM2-Luc activity [1] | IC50 (CLK3(h)) [nM]
CC(C)n1cnc2c(Nc3cc(N)cc(Cl)c3)nc(N[C@@H]3CCCNC3)nc21 [Compound 23, (R)—N^6-(3-Amino-5-Chlorophenyl)-9-Isopropyl-N^2-(Piperidin-3-Yl)-9H-Purine-2,6-Diamine] | 34 | > 1000 | > 1000 | > 1000 | > 1000 | 66 | 102 | – | – | – | – | –
CCc1cnn2c(NCc3ccc[n+]([O-])c3)cc(N3CCCC[C@H]3CCO)nc12 [dinaciclib, reference compound] | – | – | – | – | – | – | – | inactive | – | – | – | –
CC(C)n1cnc2c(Nc3cc(N)cc(Cl)c3)nc(N[C@H]3CCCC[C@H]3N)nc21 [Compound 17, N^6-(3-Amino-5-Chlorophenyl)-N^2-((1 S,2R)-2-Aminocyclohexyl)-9-Isopropyl-9H-Purine-2,6-Diamine] | 26 | > 1000 | > 1000 | > 1000 | > 1000 | 21 | 28 | – | – | – | – | –
CC(C)n1cnc2c(Nc3cccc(Cl)c3)nc(N[C@H]3CCCC[C@H]3N)nc21 [Compound 10, N^2-((1S,2R)-2-Aminocyclohexyl)-N^6-(3-Chlorophenyl)-9-Isopropyl-9H-Purine-2,6-Diamine] | 26 | > 1000 | > 1000 | > 1000 | > 1000 | 74 | 70 | – | stronger luciferase response | Active | – | –
CC(C)n1cnc2c(Nc3cc(N)cc(Cl)c3)nc(N[C@H]3CCCNC3)nc21 [Compound 22, (S)—N^6-(3-Amino-5-Chlorophenyl)-9-Isopropyl-N^2-(Piperidin-3-Yl)-9H-Purine-2,6-Diamine] | 26 | > 1000 | > 1000 | > 1000 | > 1000 | 31 | 61 | – | – | – | – | –
CC(=O)Nc1cc(Cl)cc(Nc2nc(N[C@@H]3CCCC[C@@H]3N)nc3c2ncn3C(C)C)c1 [Compound 18, N-(3-((2-(((1R,2S)-2-Aminocyclohexyl)Amino)-9-Isopropyl-9H-Purin-6-Yl)Amino)-5-Chlorophenyl)Acetamide] | 7 | > 1000 | 611 | > 1000 | > 1000 | 19 | 30 | – | – | – | – | –
CC(C)n1cnc2c(Nc3cc(N)cc(Cl)c3)nc(N[C@@H]3CCNC3)nc21 [Compound 25, (R)—N^6-(3-Amino-5-Chlorophenyl)-9-Isopropyl-N^2-(Pyrrolidin-3-Yl)-9H-Purine-2,6-Diamine] | 92 | > 1000 | > 1000 | > 1000 | > 1000 | 118 | 299 | – | – | – | – | –
CCOC(=O)c1c(/C(C#N)=C\N)c2ccc(Cl)c(Cl)c2n1C [KH-CB19, reference compound] | – | – | – | – | – | – | – | – | – | – | modest activity | –
CCn1cnc2c(Nc3cccc(Cl)c3)nc(NC3CCCCC3NC(C)=O)nc21 (racemic) [Compound 12, Racemic N-Cis(2-((6-((3-Chlorophenyl)Amino)-9-Ethyl-9H-Purin-2-Yl)Amino)Cyclohexyl) Acetamide] | – | – | – | – | – | – | – | completely abrogated all activity | – | – | – | –
O=C(Nc1cc(C(F)(F)F)ccc1N1CCCCC1)c1ccncc1 [SRPIN340, reference compound] | – | – | – | – | – | – | – | inactive | – | – | – | –
CC(C)n1ccc2c(Nc3cccc(Cl)c3)nc(NC3CCCCC3N)nc21 (racemic) [Compound 11, Racemic-N^2-Cis((2-Aminocyclohexyl)-N^4-(3-Chlorophenyl)-7-Isopropyl-7H-Pyrrolo[2,3-D]Pyrimidine-2,4-Diamine] | – | – | – | – | – | – | – | completely abrogated all activity | – | – | – | –
CCn1cnc2c(Nc3cccc(Cl)c3)nc(N[C@@H]3CCCC[C@H]3N)nc21 [Compound 5, N-((1R,2R)-2-Aminocyclohexyl)-V-(3-Chlorophenyl)-9-Ethyl-9H-Purine-2,6-Diamine] | 498 | – | > 1000 | 546 | > 1000 | 868 | > 1000 | – | – | Active | – | > 1000
CC(C)n1cnc2c(Nc3cc(N)cc(Cl)c3)nc(N[C@@H]3CCCC[C@H]3N)nc21 [Compound 21, N^6-(3-Amino-5-Chlorophenyl)-N-((1R,2R)-2-Aminocyclohexyl)-9-Isopropyl-9H-Purine-2,6-Diamine] | 163 | > 1000 | > 1000 | > 1000 | > 1000 | 274 | 648 | – | – | – | – | –
CCn1cnc2c(Nc3cccc(Cl)c3)nc(N[C@H]3CCCC[C@@H]3N)nc21 [Compound 6, N^2-((1 S,2S)-2-Aminocyclohexyl)-V-(3-Chlorophenyl)-9-Ethyl-9H-Purine-2,6-Diamine] | 190 | – | > 1000 | > 1000 | > 1000 | 371 | 498 | – | – | Active | – | > 1000
CC(C)n1cnc2c(Nc3cccc(Cl)c3)nc(N[C@@H]3CCCC[C@H]3N)nc21 [Compound 7, N-((1R,2R)-2-Aminocyclohexyl)-N^6-(3-Chlorophenyl)-9-Isopropyl-9H-Purine-2,6-Diamine] | 120 | > 1000 | > 1000 | > 1000 | > 1000 | 400 | 634 | – | – | Active | – | –
CC(C)n1cnc2c(Nc3cc(N)cc(Cl)c3)nc(N[C@H]3CCNC3)nc21 [Compound 24, (S)—N^6-(3-Amino-5-Chlorophenyl)-9-Isopropyl-N^2-(Pyrrolidin-3-Yl)-9-Purine-2,6-Diamine] | 28 | > 1000 | > 1000 | > 1000 | > 1000 | 71 | 77 | – | – | – | – | –
CC(C)n1cnc2c(Nc3cc(N)cc(Cl)c3)nc(N[C@@H]3CCCC[C@@H]3N)nc21 [Compound 16, 1V-(3-Amino-5-Chlorophenyl)-N-((1R,2S)-2-Aminocyclohexyl)-9-Isopropyl-9H-Purine-2,6-Diamine] | 6 | – | – | – | – | 17 | 25 | – | – | – | – | –
CC(=O)Nc1cc(Cl)cc(Nc2nc(N[C@H]3CCCC[C@H]3N)nc3c2ncn3C(C)C)c1 [Compound 19, N-(3-((2-(((1S,2R)-2-Aminocyclohexyl)Amino)-9-Isopropyl-9H-Purin-6-Yl)Amino)-5-Chlorophenyl)Acetamide] | 17 | > 1000 | > 1000 | > 1000 | > 1000 | 26 | 31 | – | – | – | – | –
COCCNc1nc(Nc2cccc(Cl)c2)c2ncn(C(C)C)c2n1 [Compound 13, N^6-(3-Chlorophenyl)-9-Isopropyl-N^2-(2-Methoxyethyl)-9H-Purine-2,6-Diamine] | – | – | – | – | – | – | – | – | – | – | dramatically reduced activity | –
CC(C)n1cnc2c(Nc3cc(N)cc(Cl)c3)nc(N[C@H]3CCCC[C@@H]3N)nc21 [Compound 20, 1V-(3-Amino-5-Chlorophenyl)-M-((1 S,2S)-2-Aminocyclohexyl)-9-Isopropyl-9H-Purine-2,6-Diamine] | 14 | > 1000 | > 1000 | > 1000 | > 1000 | 56 | 124 | – | – | – | – | –
